The values that follow are results of earlier work, collected in US5229134A, “Pharmaceutical compositions” (Laboratories Smith Kline & French, priority 1989, dated 1993).

For this data set the following is noted: plasma levels.

For `CN/C(=N/CCSCc1nc[nH]c1C)NC#N` [cimetidine], the “therapeutically effective concentration in plasma” value was 0.5 mg/L.
